The source made the active and inactive calls. The calls are words filed in the database; no cut-off is given here.
Assays:
[1] = biological target: Lysophosphatidic acid receptor 2 (Homo sapiens) (UniProt Q9HBW0); test: Antagonist activity at human LPA2 receptor expressed in HEK293 cells assessed as inhibition of LPA-induced AP-TGF-alpha release treated 5 mins before LPA addition measured after 60 mins; format: functional, cell-based
[2] = system: PC-3; test: Antagonist activity at LPA receptor in human PC3 cells assessed as inhibition of LPA-induced cell migration; format: functional, cell-based

Lysophosphatidic acid receptor 2 (Homo sapiens), sequence (Q9HBW0 whole entry): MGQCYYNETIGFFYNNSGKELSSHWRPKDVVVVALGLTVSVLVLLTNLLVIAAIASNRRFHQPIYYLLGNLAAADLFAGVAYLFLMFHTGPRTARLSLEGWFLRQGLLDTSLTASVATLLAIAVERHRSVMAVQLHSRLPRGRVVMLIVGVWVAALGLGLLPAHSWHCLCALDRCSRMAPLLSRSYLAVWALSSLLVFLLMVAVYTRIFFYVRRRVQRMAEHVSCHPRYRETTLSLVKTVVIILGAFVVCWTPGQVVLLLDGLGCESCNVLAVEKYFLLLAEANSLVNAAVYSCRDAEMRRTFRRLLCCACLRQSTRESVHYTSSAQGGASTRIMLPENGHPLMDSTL

| Structure (SMILES) | inhibition [1] | inhibition [2] |
| --- | --- | --- |
| Cc1noc(-c2ccc(CSCCC(=O)O)cc2)c1NC(=O)OC(C)c1ccccc1Cl (racemic) | Active | Active |
| Cc1noc(-c2ccc(CSCCC(=O)O)cc2)c1NC(=O)O[C@@H](C)c1ccccc1Cl | Active | Active |
| Cc1noc(-c2ccc(CSCCC(=O)O)cc2)c1NC(=O)O[C@H](C)c1ccccc1Cl | Active | Active |

Reference: ChEMBL document CHEMBL2169885, “Synthesis and biological evaluation of optically active Ki16425” (Bioorg Med Chem Lett, 2012)
